The assay addresses T1, c-Met kinase (recombinant c-Met) (Homo sapiens, UniProt P08581).
T1 construct: 0.27 nM recombinant c-Met
Kind of assay: In vitro kinase assay I (homogeneous time-resolved fluorescence tyrosine kinase assay). The format is biochemical. The method, boiled down:
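Biotinylated peptide (0.5 μM) phosphorylated by 0.2 nM recombinant c-Met with 50 μM MgATP, 60 min at room temperature, pH 7.4, 5% DMSO. EDTA stop; HTRF read with Eu-anti-phosphotyrosine antibody and streptavidin-APC. IC50 from 4-parameter logistic fit.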
T1 sequence (P08581 25-1390): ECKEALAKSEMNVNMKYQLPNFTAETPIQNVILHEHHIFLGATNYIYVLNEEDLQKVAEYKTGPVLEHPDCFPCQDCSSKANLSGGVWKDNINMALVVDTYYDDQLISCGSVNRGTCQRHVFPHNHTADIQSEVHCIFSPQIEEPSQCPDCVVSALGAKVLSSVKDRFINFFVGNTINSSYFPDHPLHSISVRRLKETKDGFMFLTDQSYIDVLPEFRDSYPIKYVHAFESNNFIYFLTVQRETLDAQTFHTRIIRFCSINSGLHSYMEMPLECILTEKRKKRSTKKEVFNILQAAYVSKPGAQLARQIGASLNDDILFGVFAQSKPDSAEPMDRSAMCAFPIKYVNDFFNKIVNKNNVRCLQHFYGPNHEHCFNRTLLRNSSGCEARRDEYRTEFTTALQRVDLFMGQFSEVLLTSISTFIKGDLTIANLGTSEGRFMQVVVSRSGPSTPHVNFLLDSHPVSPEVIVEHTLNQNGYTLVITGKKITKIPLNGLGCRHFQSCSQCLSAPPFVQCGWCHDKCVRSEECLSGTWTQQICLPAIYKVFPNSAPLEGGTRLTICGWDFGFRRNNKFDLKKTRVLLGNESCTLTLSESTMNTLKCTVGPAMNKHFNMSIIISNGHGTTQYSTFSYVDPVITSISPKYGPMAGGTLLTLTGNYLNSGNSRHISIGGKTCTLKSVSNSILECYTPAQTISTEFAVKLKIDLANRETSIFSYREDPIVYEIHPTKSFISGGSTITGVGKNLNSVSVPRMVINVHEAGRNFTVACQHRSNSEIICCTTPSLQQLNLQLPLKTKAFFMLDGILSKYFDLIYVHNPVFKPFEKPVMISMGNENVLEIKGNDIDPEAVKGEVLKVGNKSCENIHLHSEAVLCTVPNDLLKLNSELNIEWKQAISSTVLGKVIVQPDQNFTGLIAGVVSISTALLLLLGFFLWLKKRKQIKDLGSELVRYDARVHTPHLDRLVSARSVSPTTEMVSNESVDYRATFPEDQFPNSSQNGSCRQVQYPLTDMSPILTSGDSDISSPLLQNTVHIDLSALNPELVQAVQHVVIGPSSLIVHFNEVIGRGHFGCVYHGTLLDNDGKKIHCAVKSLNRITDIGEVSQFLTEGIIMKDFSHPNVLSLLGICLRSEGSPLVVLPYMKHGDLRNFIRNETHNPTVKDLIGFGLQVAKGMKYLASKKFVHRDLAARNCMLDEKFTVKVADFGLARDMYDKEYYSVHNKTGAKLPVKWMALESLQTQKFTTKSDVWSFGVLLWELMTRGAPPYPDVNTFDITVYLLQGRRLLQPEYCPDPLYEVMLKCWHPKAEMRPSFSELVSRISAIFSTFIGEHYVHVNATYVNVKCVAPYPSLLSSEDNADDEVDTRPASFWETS
As a reminder, the IC50 is the point on the concentration scale where inhibition reaches its midpoint. As for `Cn1cc(-n2ccc(=O)c(Cc3cccc(-c4ncc(C(C)(C)O)cn4)c3)n2)cn1` [Example 167, 3-{3-[5-(1-hydroxy-1-methylethyl)pyrimidin-2-yl]benzyl}-1-(1-methyl-1H-pyrazol-4-yl)pyridazin-4(1H)-one], the concentration for half-maximal inhibition (IC50) was < 100 nM.

For the compound `CNCc1cnc(-c2cccc(Cc3nn(-c4cnn(C)c4)ccc3=O)c2)nc1` [Example 427, 3-(3-{5-[(methylamino)methyl]pyrimidin-2-yl}benzyl)-1-(1-methyl-1H-pyrazol-4-yl)pyridazin-4(1H)-one], the IC50 lay in the range of 100 to 1000 nM.

For the compound `Cn1cc(-n2ccc(=O)c(Cc3cccc(-c4ncc(OCC(F)F)cn4)c3)n2)cn1` [Example 274, 3-{3-[5-(2,2-difluoroethoxy)pyrimidin-2-yl]benzyl}-1-(1-methyl-1H-pyrazol-4-yl)pyridazin-4(1H)-one], the IC50 was < 100 nM.

For `CCOC(=O)Nc1cccc(Cc2nn(-c3cnn(CC)c3)ccc2=O)c1` [Example 109, ethyl (3-{[1-(1-ethyl-1H-pyrazol-4-yl)-4-oxo-1,4-dihydropyridazin-3-yl]methyl}phenyl)carbamate], the concentration for half-maximal inhibition (IC50) is < 100 nM.

In the case of `Cn1cc(-n2ccc(=O)c(Cc3cccc(-c4ncc(C5CC5)cn4)c3)n2)cn1` [Example 393, 3-[3-(5-cyclopropyl-pyrimidin-2-yl)benzyl]-1-(1-methyl-1H-pyrazol-4-yl)pyridazin-4(1H)-one], the half-maximal inhibitory concentration (IC50) is < 100 nM.

For `Cn1cc(-n2ccc(=O)c(Cc3cccc(-c4ncc(N5CCCC5)cn4)c3)n2)cn1` [Example 470, 1-(1-methyl-1H-pyrazol-4-yl)-3-[3-(5-pyrrolidin-1-ylpyrimidin-2-yl)benzyl]pyridazin-4(1H)-one], the concentration for half-maximal inhibition (IC50) was < 100 nM.

For `CCOc1cnc(-c2cccc(C(C)c3nn(-c4cnn(CCO)c4)ccc3=O)c2)nc1` (single isomer, unassigned) [Example 256, 3-{(1R or S)-1-[3-(5-ethoxypyrimidin-2-yl)phenyl]ethyl}-1-[1-(2-hydroxyethyl)-1H-pyrazol-4-yl]pyridazin-4(1H)-one], the IC50 is < 100 nM.

As to `Cn1cc(-n2ccc(=O)c(Cc3cccc(NC(=O)OCCn4ccnc4)c3)n2)cn1` [Example 510, 2-(1H-Imidazol-1-yl)ethyl(3-{[1-(1-methyl-1H-pyrazol-4-yl)-4-oxo-1,4-dihydropyridazin-3-yl]methyl}phenyl)carbamate], the half-inhibitory concentration (IC50) was < 100 nM.

Turning to `Cn1cc(-c2cnc(-c3cccc(Cc4nn(-c5ccc(F)c(F)c5)ccc4=O)c3)nc2)cn1` [Example 156, 1-(3,4-difluorophenyl)-3-{3-[5-(1-methyl-1H-pyrazol-4-yl)pyrimidin-2-yl]benzyl}pyridazin-4(1H)-one], the IC50 was < 100 nM.

Consider `Cn1cc(-n2ccc(=O)c(Cc3cccc(-c4ncc(NC(=O)CC5CCOCC5)cn4)c3)n2)cn1` [Example 459, N-[2-(3-{[1-(1-methyl-1H-pyrazol-4-yl)-4-oxo-1,4-dihydro-pyridazin-3-yl]methyl}phenyl)pyrimidin-5-yl]-2-(tetrahydro 2H-pyran-4-yl)acetamide], for which the half-inhibitory concentration (IC50) was < 100 nM.

For `CCOc1cnc(-c2cccc(Cc3nn(-c4cc(Cl)cc(C#N)c4)ccc3=O)c2)nc1` [Example 140, 3-chloro-5-{3-[3-(5-ethoxypyrimidin-2-yl)benzyl]-4-oxopyridazin-1(4H)-yl}benzonitrile], the IC50 was < 100 nM.

With `CCOC(=O)c1cccc(Cc2nn(-c3cnn(C)c3)ccc2=O)c1F` [Example 47, ethyl 2-fluoro-3-{[1-(1-methyl-1H-pyrazol-4-yl)-4-oxo-1,4-dihydropyridazin-3-yl]methyl}benzoate], the 50% inhibitory concentration (IC50) is 100 to 1000 nM.

For the compound `CCn1cc(-n2ccc(=O)c(Cc3cccc(-c4ncc(OCC5CCCO5)cn4)c3)n2)cn1` (racemic) [Example 310, rac-1-(1-ethyl-1H-pyrazol-4-yl)-3-{3-[5-(tetrahydrofaran-2-ylmethoxy)pyrimidin-2-yl]benzyl}pyridazin-4(1H)-one], the IC50 was < 100 nM.

In the case of `CC(c1cccc(-c2ncc(OC(C)C(C)(C)O)cn2)c1)c1nn(-c2cnn(C)c2)ccc1=O` (single isomer, unassigned) [Example 385, 3-{(1R or S)-1-[3-(5-{[(1R or S)-2-hydroxy-1,2-dimethylpropyl]oxy}pyrimidin-2-yl)phenyl]ethyl}-1-(1-methyl-1H-pyrazol-4-yl)pyridazin-4(1H)-one], the concentration for half-maximal inhibition (IC50) was < 100 nM.

On to `CCOc1cnc(-c2cccc(Cc3nn(-c4cnn(CC(C)(C)O)c4)ccc3=O)c2)nc1` [Example 666, 3-[3-(5-Ethoxypyrimidin-2-yl)benzyl]-1-[1-(2-hydroxy-2-methylpropyl)-1H-pyrazol-4-yl]pyridazin-4(1H)-one], for which the IC50 was < 100 nM.

Turning to `COCCCn1cnc(-c2cccc(Cc3nn(-c4cnn(C)c4)ccc3=O)c2)n1` [Example 77, 3-{3-[1-(3-methoxypropyl)-1H-1,2,4-triazol-3-yl]benzyl}-1-(1-methyl-1H-pyrazol-4-yl)pyridazin-4(1H)-one], the half-maximal inhibitory concentration (IC50) was < 100 nM.

Regarding `Cn1cc(-n2ccc(=O)c(Cc3cccc(-c4ncc(/C=C/C(C)(C)O)cn4)c3)n2)cn1` [Example 401, 3-(3-{5-[(1E)-3-hydroxy-3-methylbut-1-en-1-yl]pyrimidin-2-yl}benzyl)-1-(1-methyl-1H-pyrazol-4-yl)pyridazin-4(1H)-one], the IC50 was < 100 nM.

Turning to `CC(c1cccc(-c2ncc(OC3CCOCC3)cn2)c1)c1nn(-c2cnn(C)c2)ccc1=O` (single isomer, unassigned) [Example 212, 1-(1-methyl-1H-pyrazol-4-yl)-3-[(1R or S)-1-{3-[5-(tetrahydro-2H-pyran-4-yloxy)pyrimidin-2-yl]phenyl}ethyl]pyridazin-4(1H)-one], the IC50 is < 100 nM.

On to `CCn1cc(-n2ccc(=O)c(C(C)c3cccc(-c4ncc(OCCOC)cn4)c3)n2)cn1` (single isomer, unassigned) [Example 248, 1-(1-ethyl-1H-pyrazol-4-yl)-3-((1R or S)-1-{3-[5-(2-methoxyethoxy)pyrimidin-2-yl]phenyl}ethyl)pyridazin-4(1H)-one], for which the 50% inhibitory concentration (IC50) was < 100 nM.

In the case of `Cn1cc(-n2ccc(=O)c(Cc3cccc(-c4ncc(N5CCCC(F)C5)cn4)c3)n2)cn1` (racemic) [Example 468, rac-3-{3-[5-(3-fluoro-piperidin-1-yl)pyrimidin-2-yl]benzyl)-1-(1-methyl-1H-pyrazol-4-yl)pyridazin-4(1H)-one], the IC50 is < 100 nM.

As for `CCOc1cnc2ccc(Cc3nn(-c4cc(F)c(F)c(F)c4)ccc3=O)cc2c1` [Example 65, 3-[(3-ethoxyquinolin-6-yl)methyl]-1-(3,4,5-trifluorophenyl)pyridazin-4(1H)-one], the IC50 is 100 to 1000 nM.

As to `CCCn1cnc(-c2cccc(Cc3nn(-c4cnn(CCOCc5ccccc5)c4)ccc3=O)c2)n1` [Example 89, 1-{1-[2-(benzyloxy)ethyl]-1H-pyrazol-4-yl}-3-[3-(1-propyl-1H-1,2,4-triazol-3-yl)benzyl]pyridazin-4(1H)-one], the 50% inhibitory concentration (IC50) fell in the range of 100 to 1000 nM.

`CC(C)COC(=O)Nc1cccc(Cc2nn(-c3cnn(C)c3)ccc2=O)c1` [Example 53, 2-methylpropyl (3-{[1-(1-methyl-1H-pyrazol-4-yl)-4-oxo-1,4-dihydropyridazin-3-yl]methyl}phenyl)carbamate]: the IC50 is < 100 nM.

As for `CCOc1cnc(-c2ccc(F)c(Cc3nn(-c4cnn(C)c4)ccc3=O)c2)nc1` [Example 118, 3-[5-(5-ethoxypyrimidin-2-yl)-2-fluorobenzyl]-1-(1-methyl-1H-pyrazol-4-yl)pyridazin-4(1H)-one], the IC50 was < 100 nM.

The record behind these values is patent US20120264735A1 (priority 2009, published 2012).
